# System: SARS-CoV-2 (BetaCov/Belgium/GHB-03021/2020 B.1 lineage A)
row,Compound,SI (Selection Index) = CC50/EC50
1,"CNC(=O)c1cc(Br)cc([N+](=O)[O-])c1N[C@@H]1CCCC[C@@H]1NC(=O)c1cccnc1 [Compound A5, N-((1S,2R)-2-((4-bromo-2-(methylcarbamoyl)-6-nitrophenyl)amino)cyclohexyl)nicotinamide]",>49.7
2,"CNC(=O)c1cc(Br)cc([N+](=O)[O-])c1N[C@@H]1CCCC[C@@H]1NC(=O)c1cncc(O)c1 [Compound A6, N-((1S,2R)-2-((4-bromo-2-(methylcarbamoyl)-6-nitrophenyl)amino)cyclohexyl)-5-hydroxynicotinamide]",>16.5

# Source: article PMC11765572 (International Journal of Molecular Sciences, 2025)
